Measured values published in patent US8785452B2, “Anti-infective compounds” (priority 2008, dated 2014).
Values after ≈ are worked out from the molar mass of the structure shown. Like-named read-outs stand apart in the source and are kept apart here.

How the values were obtained:
Raw264.7 cells [1] = settings: mouse, 5 days, 20 μM
[2] = test system: M. tuberculosis H37Rv-GFP; assay: microbe, parasite or virus in culture; assay type: cell-based, Mycobacterium tuberculosis; settings: for inhibition at 20 µM: Mycobacterium tuberculosis, H37RV, Macrophage
Raw264.7 cells [3] = assay: Cell number (CellNb) from image analysis of the phenotypic cell-based assay
[4] = test system: panel of cell lines derived from different body tissue; assay: Cytotoxicity assay (resazurin), whole panel; settings: 5 days co-incubation, 133 up to 100 μM
C. jeikeium = assay: Antimicrobial spectrum; assay type: cell-based, Corynebacterium; settings: for MIC: Corynebacterium C. jeikeium
M. tuberculosis H37Rv [5] = assay: Conventional CFU determination in infected macrophages; assay type: cell-based, Mycobacterium tuberculosis
HepG2-Hepatocytes = assay: Cytotoxicity assay (resazurin); assay type: cell-based; settings: 5 days
Protocol: (§1) In order to address compound toxicity, seven cell lines originating from different body tissues were cultivated in the presence of 3-fold dilutions of compounds starting from 100 μM. After 5 days of culture, cell viability was assessed by the resazurin test. Briefly, cells were incubated with 10 μg/mL of resazurin (Sigma-Aldrich St. Louis, Mo.) for 4 h at 37° C. under 5% CO2. Resofurin fluorescence (RFU) was measured as indicated above. Percentage of toxicity on cells was calculated as follows: Cytotoxicity (%)=(RFUDMSO−RFUBlank)−(RFUcompound−RFUblank)/(RFUDMSO−RFUBlank)×100. Percentage of cytotoxicity was plotted against compound concentration and the minimal toxic concentration (MTC50) was determined by non-linear regression analysis as the lowest compound concentration where fifty percent toxicity was observed on the corresponding cell line.

MRC5-Lung = assay: Cytotoxicity assay (resazurin); assay type: cell-based; settings: 5 days
Protocol: as §1

SK-N-SH-Brain = assay: Cytotoxicity assay (resazurin); assay type: cell-based; settings: 5 days
Protocol: as §1

HEK293-Kidney = assay: Cytotoxicity assay (resazurin); assay type: cell-based; settings: 5 days
Protocol: as §1

BJ-Skin = assay: Cytotoxicity assay (resazurin); assay type: cell-based; settings: 5 days
Protocol: as §1

[6] = test system: M. tuberculosis Beijing 1237; assay: MIC, in vitro bacterial growth assay; assay type: cell-based; settings: Mycobacterium tuberculosis, BEIJING1237; laboratory strain Beijing 1237
[7] = test system: M. tuberculosis clinical isolates; assay type: cell-based, Mycobacterium tuberculosis
M. smegmatis mc^2 155 = assay: MIC, in vitro bacterial growth assay; assay type: cell-based, Mycobacterium smegmatis; settings: for MIC: Mycolicibacterium smegmatis, MC^2155
M. bovis BCG Tokyo = assay: microbe, parasite or virus in culture; assay type: cell-based; settings: Mycobacterium tuberculosis variant bovis BCG
C. striatum = assay: Antimicrobial spectrum; assay type: cell-based, Corynebacterium; settings: for MIC: Corynebacterium C. striatum
M. tuberculosis H37Ra = assay: MIC, in vitro bacterial growth assay; assay type: cell-based; settings: Mycobacterium tuberculosis
Antimicrobial spectrum [8] = assay type: cell-based; settings: Gram-negative panel
[9] = test system: Fungi: Candida albicans, C. glabrata, C. parapsilosis; assay: Antimicrobial spectrum; assay type: cell-based; settings: Candida panel
Antimicrobial spectrum [10] = assay type: cell-based; settings: Gram-positive panel
M. tuberculosis H37Rv [11] = assay: MIC, in vitro bacterial growth assay; assay type: cell-based; settings: Mycobacterium tuberculosis
M. bovis BCG Pasteur = assay: microbe, parasite or virus in culture; assay type: cell-based; settings: Mycobacterium tuberculosis variant bovis BCG
THP-1-Monocytes = assay: Cytotoxicity assay (resazurin); assay type: cell-based; settings: 5 days
Protocol: as §1

Jurkat-T-cell = assay: Cytotoxicity assay (resazurin); assay type: cell-based; settings: 5 days
Protocol: as §1

Primary BMDM = assay: Cytotoxicity assay (resazurin); settings: 5 days
[12] = test system: Primary human macrophages; assay: Cytotoxicity assay (resazurin); settings: 5 days
[13] = test system: Gram-negative: Acinetobacter baumannii, Escherichia coli, Enterobacter cloacae, E. aerogenes, Klebsiella oxytoca, Pseudomonas aeruginosa, Salmonella enteridis …; assay: Antimicrobial spectrum; assay type: cell-based; settings: Gram-negative panel, clinical isolates from CHU d'Angers
in vitro = settings: human
BCG Pasteur-Tokyo = assay: microbe, parasite or virus in culture; assay type: cell-based; settings: Mycobacterium tuberculosis variant bovis BCG
[14] = test system: Gram-positive: Staphylococcus aureus, S. epidermis, S. capitis, S. xylosus, Micrococcus luteus, Listeria innocua, Lactobacillus gallinarum, group G …; assay: Antimicrobial spectrum; assay type: cell-based; settings: Gram-positive panel, clinical isolates from CHU d'Angers
[15] = compounds 5 μM, Raw264.7, mouse bone marrow-derived macrophages, human primary macrophages, five days after infection
[16] = laboratory strain H37Ra, read-out: MIC
[17] = laboratory strain H37Rv, read-out: MIC
[18] = human and mouse cells, seven days after infection, 232 at 20 μM

| SMILES | melting point | cytotoxicity against the panel of cell lines [4] | Range of MTC50 (HepG2-Hepatocytes) [µM] | Range of MTC50 (MRC5-Lung) [µM] | Range of MTC50 (SK-N-SH-Brain) [µM] | Range of MTC50 (HEK293-Kidney) [µM] | Range of MTC50 (BJ-Skin) [µM] | Range of MICs for multiple strains ([7]; Drug Sensitive, Tissue) [µM] | Range of MICs for multiple strains ([7]; INH^R RIF^R Strep^R, Sputum) [µM] | Range of MICs for multiple strains ([7]; INH^R RIF^R Strep^R, Tissue) [µM] | Range of MICs for multiple strains ([7]; MDR, Sputum) [µM] | Range of MICs for multiple strains ([7]; MDR, Tissue) [µM] | Range of MICs for multiple strains ([7]; RIF^R, Sputum) [µM] | Range of MICs for multiple strains ([7]; RIF^R, Tissue) [µM] | Range of MICs for multiple strains ([7]; XDR, Sputum) [µM] | Range of MICs for multiple strains ([7]; XDR, Tissue) [µM] | MIC (M. bovis BCG Pasteur) [µM] | other results |
| --- | --- | --- | --- | --- | --- | --- | --- | --- | --- | --- | --- | --- | --- | --- | --- | --- | --- | --- |
| CS(=O)(=O)O[C@H]1CCN(C(=O)c2cc([N+](=O)[O-])cc([N+](=O)[O-])c2)C1 | 138 to 140 °C | – | – | – | – | – | – | – | – | – | – | – | – | – | – | – | – | – |
| CNC(=O)c1c(Nc2ccc(F)c(Cl)c2)nc2c(OC)cccn2c1=O | 218 °C (dec.) | – | – | – | – | – | – | – | – | – | – | – | – | – | – | – | – | – |
| COc1cccn2c(=O)c(CO)c(Nc3ccc(F)c(F)c3)nc12 | 231 °C (dec.) | – | – | – | – | – | – | – | – | – | – | – | – | – | – | – | – | – |
| NNC(=O)c1ccc(COc2ccc(F)cc2)o1 [IPK 000 124 65] | – | – | – | – | – | – | – | – | – | – | – | – | – | – | – | – | – | Primary QIM CellNb (Raw264.7 cells [1]): 45.0; inhibition at 20 µM ([2]; confirmation, 20 uM, read-out: QIM Confirm % Inhibition 20 uM): 94.3%; inhibition at 20 µM ([2]; primary screen, 20 μM, read-out: Primary QIM % Inhibition): 77.1%; QIM Confirm CellNb 0.2 uM (Raw264.7 cells [3]; confirmation, 0.2 uM): 267.0; Primary QIM CellNb (Raw264.7 cells [3]; primary screen, 20 μM): 490.8 |
| COc1ccc(OCCNC(=O)c2cc([N+](=O)[O-])cc([N+](=O)[O-])c2)cc1 [compound 4, N-(2-(4-Methoxyphenoxy)ethyl)-3,5-dinitrobenzamide] | – | no cytotoxicity | >100 | >100 | >100 | >100 | >100 | 0.38 | 0.1 | 0.05 to 0.1 | 0.05 to 0.1 | 0.05 to 0.1 | 0.05 | 0.02 to 0.05 | 0.02 to 0.05 | 0.05 to 0.1 | 1.2 (≈ 0.434 µg/mL) | MIC (C. jeikeium): 2.7 µM (≈ 0.976 µg/mL); decrease in the number of CFUs (M. tuberculosis H37Rv [5]; [15]): ten-fold decrease; MIC [6]: 0.3 µM (≈ 0.108 µg/mL); MIC (M. smegmatis mc^2 155): 1.2 µM (≈ 0.434 µg/mL); MIC (M. bovis BCG Tokyo): 1.2 µM (≈ 0.434 µg/mL); MIC (C. striatum): 27 µM (≈ 9.76 µg/mL); MIC (M. tuberculosis H37Ra; [16]): 1.2 µM (≈ 0.434 µg/mL); MIC (Antimicrobial spectrum [8]): > 250 µM; MIC [9]: > 250 µM; MIC (Antimicrobial spectrum [10]): > 250 µM; MIC (M. tuberculosis H37Rv [11]; [17]): 0.6 µM (≈ 0.217 µg/mL) |
| O=C(NCCOCc1ccccc1)c1cc([N+](=O)[O-])cc([N+](=O)[O-])c1 [compound 24, N-(2-(Benzyloxy)ethyl)-3,5-dinitrobenzamide] | – | no cytotoxicity | >100 | >100 | >100 | >100 | >100 | 0.31 | 0.08 | 0.04 to 0.08 | 0.04 to 0.08 | 0.04 to 0.08 | 0.08 | 0.08 | 0.04 to 0.08 | 0.08 | 1.2 (≈ 0.414 µg/mL) | MIC (C. jeikeium): 2.7 µM (≈ 0.932 µg/mL); decrease in the number of CFUs (M. tuberculosis H37Rv [5]; [15]): ten-fold decrease; MIC [6]: 0.1 µM (≈ 0.0345 µg/mL); MIC (M. smegmatis mc^2 155): 0.6 µM (≈ 0.207 µg/mL); MIC (M. bovis BCG Tokyo): 0.6 µM (≈ 0.207 µg/mL); MIC (C. striatum): 27 µM (≈ 9.32 µg/mL); MIC (M. tuberculosis H37Ra; [16]): 1.3 µM (≈ 0.449 µg/mL); MIC (Antimicrobial spectrum [8]): > 250 µM; MIC [9]: > 250 µM; MIC (Antimicrobial spectrum [10]): > 250 µM; MIC (M. tuberculosis H37Rv [11]; [17]): 0.6 µM (≈ 0.207 µg/mL) |
| Cc1cccn2c(=O)c(C=O)c(Nc3cccc(Cl)c3)nc12 [compound 133, 2-(3-Chlorophenylamino)-9-methyl-4-oxo-4H-pyrido[1,2-a]pyrimidine-3-carbaldehyde] | – | no cytotoxicity | >100 | >100 | >100 | >100 | >100 | 2.5 to 5 | 0.3 to 1.2 | 1.2 | 0.3 to 1.2 | 1.2 | 2.5 | 1.2 | 0.6 to 2.5 | 0.3 to 5 | 2 (≈ 0.627 µg/mL) | antimicrobial effect (C. jeikeium; C. jeikeium, clinical isolates from CHU d'Angers): NE (NE: No effect up to 100 μg/mL equivalent to 320 μM); decrease in the number of CFUs (M. tuberculosis H37Rv [5]; [18]): ten-fold decrease; Range of MTC50 (THP-1-Monocytes): >100 µM; Range of MTC50 (Jurkat-T-cell): >100 µM; Range of MTC50 (Primary BMDM): >100 µM; MIC (M. smegmatis mc^2 155; mc^2 155, read-out: MIC): > 100 µM; MIC (μM) (M. smegmatis mc^2 155; mc^2 155): no effect; Range of MTC50 [12]: >100 µM; antimicrobial effect (C. striatum; C. striatum, clinical isolates from CHU d'Angers): NE (NE: No effect up to 100 μg/mL equivalent to 320 μM); MIC (M. tuberculosis H37Ra; H37RA): 2 µM (≈ 0.627 µg/mL); antimicrobial effect [13]: NE (NE: No effect up to 100 μg/mL equivalent to 320 μM); antimicrobial effect ([9]; clinical isolates from CHU d'Angers): NE (NE: No effect up to 100 μg/mL equivalent to 320 μM); selectivity ratio (in vitro): > 50; MIC (BCG Pasteur-Tokyo): 2 µM (≈ 0.627 µg/mL); antimicrobial effect [14]: NE (NE: No effect up to 100 μg/mL equivalent to 320 μM); MIC (M. tuberculosis H37Rv [11]; H37RV): 2 µM (≈ 0.627 µg/mL) |
| Cc1cccn2c(=O)c(CO)c(Nc3cccc(Cl)c3)nc12 [compound 232, 2-(3-Chlorophenylamino)-3-(hydroxymethyl)-9-methyl-4H-pyrido[1,2-a]pyrimidin-4-one] | – | – | – | – | – | – | – | – | – | – | – | – | – | – | – | – | – | decrease in the number of CFUs (M. tuberculosis H37Rv [5]; [18]): ten-fold decrease; bacterial load and host cell abundance versus DMSO control [2]: harbored fewer bacteria compared to DMSO control and were more abundant |
